In brackets after ≈: the same amount, converted by molar mass. Where two headings read alike, the source gives them in different places.
Legend:
Assay type in all cases: cell-based
S. aureus ATCC43300 [1] = assay: ROS assay (DCFH-DA); conditions: control compounds
Description: It is known that the disruption of bacterial cell membranes often causes the production of ROS in bacterial cells. The fluorescent probe DCFH-DA was used to monitor the level of intracellular ROS produced by S. aureus ATCC43300. DCFH-DA is initially non-fluorescent; however, it undergoes hydrolysis to DCFH upon entry into the cell. Subsequently, DCFH is converted to the fluorescent compound DCF when ROS are produced in the cells. […] The fluorescence intensity of 9h was about 8-fold higher than the PBS-treated group when the concentration of 9h increased 16 μg/mL.
Mid-log S. aureus ATCC43300 was collected and resuspended in PBS. Bacteria suspension (1.0 × 10^8 CFU/mL) was placed into a 96-well plate, and an equal volume of DCF-DA (10.0 μM) was mixed and incubated at 37 °C for 30 min. After incubation, the suspension was centrifuged (3500 rpm, 4 min), and the supernatant was removed and resuspended in PBS. […] The fluorescence intensity of each well was recorded by a microplate reader (Ex = 488 nm and Em = 530 nm). All biological experiments were repeated three times.

[2] = system: Staphylococcus aureus ATCC43300, methicillin-resistant strain; assay: microbe, parasite or virus in culture; conditions: for MIC: ATCC 43300 / MRSA, read-out: MIC S. a 43300
Description: (§1) All target derivatives were assessed for their in vitro antibacterial activities using a broth microdilution assay to test their minimum inhibitory concentrations (MICs) against six Gram-positive strains (S. aureus ATCC31007, S. aureus ATCC25923, S. aureus ATCC43300, E. faecalis ATCC29212, B. subtilis ATCC9372, and S. epidermidis ATCC12228) and four Gram-negative strains (A. baumannii ATCC19606, K. pneumonia ATCC10031, E. coli ATCC25922, and P. aeruginosa ATCC27853). These compounds were also evaluated for their hemolytic activities and membrane selectivity by determining their HC50 (the concentration required to lyse 50% of red blood cells) and SI (HC50/MICs) values, respectively, and vancomycin was used as the positive drug.
(§2) MICs of the derivatives were determined by the micro broth dilution method according to the American Clinical and Laboratory Standards Institute (CLSI) standards. Briefly, 2-fold serial dilutions of target compounds were prepared in 96-well plates containing TSB broth. An equal volume of bacterial suspension (10^6 CFU/mL) was then pipetted into each well, and the mixture was incubated at 37 °C for 24 h. […] All biological experiments were repeated three times.

S. aureus ATCC4330 = assay: microbe, parasite or virus in culture; conditions: control compounds of the ROS assay
Description: Due to the presence of various biological enzymes in plasma, natural AMPs are susceptible to enzymatic degradation upon entering the bloods, leading to a loss of their antimicrobial activity. To evaluate the plasma stability of active compound 9h, we conducted a stability assay by determining their MBC (minimum bactericidal concentration) values in plasma and different blood components. […] The observed initial increase in the MBC value, followed by remaining unchanged, could potentially be attributed to the initial binding of compound 9h with plasma proteins, causing a reduction in its activity. Once this binding became saturated, the bactericidal activity of the compound remained stable, further indicating the good stability of compound 9h in plasma.
MBCs of the compounds were tested. Furthermore, MBCs of compounds in 50% plasma, 50% serum, and 50% blood suspension were tested. The MBC value is defined as the concentration at which the colony count is less than 5 after 18 h of incubation at 37 °C. All biological experiments were repeated three times.

S. aureus ATCC43300 [3] = assay: DNA leakage study; conditions: control compound
Description: The destruction of bacterial cell membranes usually causes the leakage of macromolecules, including DNA and proteins. To investigate the effect of the compound 9h on the leakage of cytoplasmic contents, we performed DNA and protein leakage assays against S. aureus ATCC43300. The degree of damage to the bacterial cell membrane could be reflected by the concentrations of DNA and protein. The non-membrane-targeted antibiotic ciprofloxacin, membrane-targeted peptide melittin, and PBS were used as controls. […] A similar result were also observed in the leakage of protein with S. aureus (Figure 8C).
Mid-log S. aureus ATCC43300 was collected and resuspended in PBS (1.0 × 10^8 CFU/mL). […] The concentration of the protein was determined according to the method of the BCA assay kit (Thermo Fisher Scientific, Waltham, MA, USA), and the concentration of DNA in the supernatant was tested by a micro-spectrophotometer. All biological experiments were repeated three times.

[4] = system: Enterococcus faecalis ATCC51299, vancomycin-resistant strain; assay: MIC, broth microdilution; conditions: Enterococcus faecalis, ATCC51299, read-out: MIC E. f. 51299
Description: as §2

[5] = system: Enterococcus faecium ATCC51559, vancomycin-resistant strain; assay: MIC, broth microdilution; conditions: Enterococcus faecium, ATCC51559, read-out: MIC E. f. 51559
Description: as §2

[6] = system: Klebsiella pneumonia ATCC10031; assay: MIC, broth microdilution; conditions: Klebsiella pneumoniae, ATCC10031, read-out: MIC K. p. 10031
Description: as §1, §2

[7] = system: Bacillus subtilis ATCC9372, penicillin-susceptible strain; assay: MIC, broth microdilution; conditions: Bacillus subtilis, ATCC9372, read-out: MIC B. s. 9372
Description: as §1, §2

[8] = system: Staphylococcus aureus ATCC25923, erythromycin-susceptible strain; assay: MIC, broth microdilution; conditions: Staphylococcus aureus, ATCC25923, read-out: MIC S. a. 25923
Description: as §1, §2

[9] = system: Staphylococcus aureus ATCC31007, penicillin-resistant strain; assay: MIC, broth microdilution; conditions: Staphylococcus aureus, ATCC31007, read-out: MIC S. a. 31007
Description: as §1, §2

[10] = system: Escherichia coli ATCC25922, penicillin-susceptible strain; assay: MIC, broth microdilution; conditions: Escherichia coli, ATCC25922, read-out: MIC E. c. 25922
Description: as §1, §2

[11] = system: Acinetobacter baumannii ATCC19606; assay: MIC, broth microdilution; conditions: Acinetobacter baumannii, ATCC19606, read-out: MIC A. b. 19606
Description: as §1, §2

[12] = system: Enterococcus faecalis ATCC29212, vancomycin-susceptible strain; assay: MIC, broth microdilution; conditions: Enterococcus faecalis, ATCC29212, read-out: MIC E. f. 29212
Description: as §1, §2

[13] = system: Pseudomonas aeruginosa ATCC27853; assay: MIC, broth microdilution; conditions: Pseudomonas aeruginosa, ATCC27853, read-out: MIC P. a. 27853
Description: as §1, §2

[14] = system: Staphylococcus epidermidis ATCC12228, erythromycin-susceptible strain; assay: MIC, broth microdilution; conditions: Staphylococcus epidermidis, ATCC12228, read-out: MIC S. e. 12228
Description: as §1, §2

S. aureus ATCC43300 [15] = assay: Resistance development assay (serial passage); conditions: at the 19th passage
Description: The rapid increase in bacterial resistance to antibiotics is a major challenge in clinical treatment, and in order to assess the drug resistance development for compound 9h, we performed a drug resistance assay against S. aureus ATCC43300. Norfloxacin was selected as the positive control. The S. aureus cells were incubated with sub-MIC (1/2 MIC) concentration of compound 9h and were serially passaged for a duration of 20 days.
Resistance was defined as a more than 4-fold increase in the tested compound in MIC when compared to the beginning value. Briefly, S. aureus ATCC43300 was cultured (37 °C, 200 rpm) in MHB broth for 5 h and diluted to 1 × 10^6 CFU/mL. Then, the bacteria were cultured with compound 9h at a sub-MIC concentration (1/2 MIC) for 18 h. The MICs were determined according to this method for consecutive 20 days. All biological experiments were repeated three times.

[16] = Staphylococcus aureus ATCC43300 (MRSA)

**Q.** For `CC[C@H](C)[C@H](NC(=O)CN)C(=O)NCC(=O)N[C@@H](C)C(=O)N[C@H](C(=O)N[C@@H](CC(C)C)C(=O)N[C@@H](CCCCN)C(=O)N[C@H](C(=O)N[C@@H](CC(C)C)C(=O)N[C@H](C(=O)N[C@H](C(=O)NCC(=O)N[C@@H](CC(C)C)C(=O)N1CCC[C@H]1C(=O)N[C@@H](C)C(=O)N[C@@H](CC(C)C)C(=O)N[C@H](C(=O)N[C@@H](CO)C(=O)N[C@@H](Cc1c[nH]c2ccccc12)C(=O)N[C@H](C(=O)N[C@@H](CCCCN)C(=O)N[C@@H](CCCNC(=N)N)C(=O)N[C@@H](CCCCN)C(=O)N[C@@H](CCCNC(=N)N)C(=O)N[C@@H](CCC(N)=O)C(=O)N[C@@H](CCC(N)=O)C(N)=O)[C@@H](C)CC)[C@@H](C)CC)[C@@H](C)O)[C@@H](C)O)C(C)C)C(C)C` [melittin, reference compound], which “effect on ROS fluorescence intensity” value (S. aureus ATCC43300 [1]) is on record?
**A.** dose-dependently increase the fluorescence intensity

**Q.** What about the “MIC S. a 43300” value [2, 16] of the same compound?
**A.** 8 µg/mL (≈ 2.81 µM)

**Q.** What about the MBC (S. aureus ATCC4330; against S. aureus ATCC43300) of the same compound?
**A.** 32 µg/mL (≈ 11.2 µM)

**Q.** Which results are given for `O=C(O)c1cn(C2CC2)c2cc(N3CCNCC3)c(F)cc2c1=O` [ciprofloxacin, reference compound]?
**A.** effect on ROS fluorescence intensity (S. aureus ATCC43300 [1]): little change in fluorescence intensity; MIC [2, 16]: 0.25 µg/mL (≈ 0.754 µM); MBC (S. aureus ATCC4330; Staphylococcus aureus, ATCC 4330 / ATCC 43300, against S. aureus ATCC43300, read-out: MBC): 2 µg/mL (≈ 6.04 µM); effect on DNA concentration (S. aureus ATCC43300 [3]): changed little

**Q.** For `CN[C@H](CC(C)C)C(=O)N[C@H]1C(=O)N[C@@H](CC(N)=O)C(=O)N[C@H]2C(=O)N[C@H]3C(=O)N[C@H](C(=O)N[C@H](C(=O)O)c4cc(O)cc(O)c4-c4cc3ccc4O)[C@H](O)c3ccc(c(Cl)c3)Oc3cc2cc(c3O[C@@H]2O[C@H](CO)[C@@H](O)[C@H](O)[C@H]2O[C@H]2C[C@](C)(N)[C@H](O)[C@H](C)O2)Oc2ccc(cc2Cl)[C@H]1O` [Van, vancomycin, reference compound], which MIC [4] is on record?
**A.** 128 µg/mL (≈ 88.3 µM)

**Q.** And the MIC [5]?
**A.** 128 µg/mL (≈ 88.3 µM)

**Q.** And the MIC ([2]; Staphylococcus aureus)?
**A.** 2 µg/mL (≈ 1.38 µM)

**Q.** What about the MIC [6] of the same compound?
**A.** 128 µg/mL (≈ 88.3 µM)

**Q.** And the MIC [7]?
**A.** 0.5 µg/mL (≈ 0.345 µM)

**Q.** And the MIC [8]?
**A.** 1 µg/mL (≈ 0.69 µM)

**Q.** And the MIC [9]?
**A.** 1 µg/mL (≈ 0.69 µM)

**Q.** And the MIC [10]?
**A.** 128 µg/mL (≈ 88.3 µM)

**Q.** And the MIC [11]?
**A.** 16 µg/mL (≈ 11 µM)

**Q.** What about the MIC [12] of the same compound?
**A.** 2 µg/mL (≈ 1.38 µM)

**Q.** What about the MIC [13] of the same compound?
**A.** > 128 µg/mL

**Q.** What about the MIC [14] of the same compound?
**A.** 2 µg/mL (≈ 1.38 µM)

**Q.** With `CCn1cc(C(=O)O)c(=O)c2cc(F)c(N3CCNCC3)cc21` [norfloxacin, reference compound] as the compound, how does the “fold increase in MIC” value (S. aureus ATCC43300 [15]) read?
**A.** 512 fold

Source: PMC11350758, “Development of Xanthoangelol-Derived Compounds with Membrane-Disrupting Effects against Gram-Positive Bacteria” (Antibiotics, 2024)
